Tested on: human U251 cells
Assay: Cellular effects in U251 cells
Assay type: cell-based
Details: proliferation, migration, SOX2 (Supplementary Fig. S4)
Procedure: This assay was performed as described previously. Briefly, cells were preincubated with compounds for 30 min, and then transferred onto a laminin-coated transwell insert in which the lower chambers contained epidermal growth factor (EGF, #E9644, Sigma-Aldrich). Cells were allowed to migrate for 3 h, and the number of cells that migrated to the lower surface was counted under a conventional fluorescence microscope.
Cells (3 × 10^4 cells) were inoculated into a 24-well plastic tissue culture plate with 500 µl of DMEM supplemented with 2% FBS and the indicated compounds for 48 h. Cells were harvested by trypsinization and then manually counted with a hemacytometer.
Cells were inoculated at 5 × 10^3 cells per 96-well uncoated polystyrene plate (# 9018, Corning) or 5 × 10^4 cells per 35-mm plastic petri dish (#351008, Corning), and cultured in a serum-free medium containing DMEM/F12 with 1x B27 supplement (#17504044, Thermo Fisher Scientific), EGF (20 ng/ml), and basic fibroblast growth factor (bFGF, 20 ng/ml, #064-05381, Wako pure chemical). After a 7-day culture, cells were fixed with 10% neutral formalin and pictured under a conventional microscope. The number of spheroids of approximately 70 µm in diameter were counted manually using Adobe Photoshop CS6 (Adobe).

## CCOc1ccc(C(F)(F)F)cc1CSc1ccsc1C(=O)NS(=O)(=O)c1ccccc1 [NAZ2329]
  cellular effects in U251 cells compared with C6 cells: exerted similar effects
